Data taken from patent US20070218509A1, “Murine Living Tissue Model & UsesTthereof” (priority 2003, published 2007).

What was measured:
SP-1 papilloma model [1] = assay: SP-1 papilloma three-dimensional model, area of cell cover (propidium iodide stained whole mounts); format: cell-based, mouse; details: SP-1 model
Protocol: In summary the in vitro models were developed using contracted collagen gels which supported a layer of mouse tumour cells or corresponding “normal” epithelial cells. The collagen gel was comprised of type I collagen, isolated from rat tail tendon, contracted using primary mouse fibroblasts, which were isolated from the dermis of newborn (or embryonic) mice. The collagen gels contracted to a size approximately 1.5 cm in diameter and were seeded with a single cell suspension of mouse tumour or normal epithelial cells. The models were initially maintained as submerged cultures, which allowed the cells to adhere to the collagen gel and grow. The models may thereafter be raised to the air-liquid interface (semi-submerged culture) to promote cell differentiation and formation of tissue. […] Test agents can be added to the model system at different stages of tumour development. The models are directly imaged as whole mounts by fluorescent labelling of cells either with vital dyes or genetic markers or after fixation and staining.
In more detail, the collagen gel, described below, which supports the layer of epithelial cells (BalbMK (Weissman and Aaronson 1985), SP-1 (Strickland et al. 1988) or T52 Hufos (Greenhalgh and Yuspa 1988) in the prototype models), was contracted using dermal fibroblasts isolated from newborn mouse skin. The epidermis and dermis were separated from each other following an overnight digestion with trypsin at 4° C. The dermal tissue washed in sterile PBS, dissected-into very small pieces, suspended in 3-5 ml of MEM culture media and the slurry seeded into a 75 cm^2 plastic culture flask. This tissue was cultured without disturbance until the tissue pieces had adhered to the plastic flask. Fresh MEM (Minimum Essential Medium) supplemented with 10% foetal calf serum, 1% L-glutamine, 100 U/ml penicillin and 100 μg/ml streptomycin was added to the flask at this time. Fibroblast cell outgrowth from the dermal tissue explants was observed after several days. The excess tissue was removed and the fibroblast cells cultured to confluence. […]

[2] = test system: T52 Hufos invasive tumour model; assay: T52 Hufos invasive tumour three-dimensional model, area of cell cover; format: cell-based, mouse; details: 10^−7M RA, 10 day culture period (FIG. 7)
From the text: Hufos invasive tumour model over a 10 day culture period. In summary the in vitro models were developed using contracted collagen gels which supported a layer of mouse tumour cells or corresponding “normal” epithelial cells. The collagen gel was comprised of type I collagen, isolated from rat tail tendon, contracted using primary mouse fibroblasts, which were isolated from the dermis of newborn (or embryonic) mice. The collagen gels contracted to a size approximately 1.5 cm in diameter and were seeded with a single cell suspension of mouse tumour or normal epithelial cells. The models were initially maintained as submerged cultures, which allowed the cells to adhere to the collagen gel and grow. The models may thereafter be raised to the air-liquid interface (semi-submerged culture) to promote cell differentiation and formation of tissue. […] Test agents can be added to the model system at different stages of tumour development. The models are directly imaged as whole mounts by fluorescent labelling of cells either with vital dyes or genetic markers or after fixation and staining. In more detail, the collagen gel, described below, which supports the layer of epithelial cells (BalbMK (Weissman and Aaronson 1985), SP-1 (Strickland et al. 1988) or [MUT] Hufos (Greenhalgh and Yuspa 1988) in the prototype models), was contracted using dermal fibroblasts isolated from newborn mouse skin. […]

SP-1 cells = assay: Growth curves of SP-1 cells in monolayer culture; format: cell-based; details: Mus musculus, 240 h; SP-1 monolayer culture, 10 days in culture, 10^−7M RA; read-out: inhibition of the log phase of growth
SP-1 papilloma model [3] = assay: SP-1 papilloma model, cell killing (H & E stained paraffin sections); format: cell-based, mouse; details: SP-1 model
Protocol: (§1) FIG. 10: Treatment of models with the anti-tumour drug cisplatin. H & E stained paraffin sections (×400 magnification) of SP-1 “papilloma” model (A, C and E) and T52-Hufos “invasive tumour” model (B, D and F). Shown are (A and B) untreated models (without cisplatin), (C and D) models treated with 50 μM cisplatin and (E and F) models treated with 500 μM cisplatin.
(§2) Cell models were harvested at appropriate time intervals and fixed overnight, at room temperature in a solution of buffered formalin. A small piece of the model was removed and embedded in paraffin wax. Sections were cut and mounted onto glass slides and stained with haematoxylin and eosin (H & E stain). The remainder of the model washed in PBS (phosphate buffered saline), permeabilised with Triton X-100 and stained with propidium iodide (PI). The washed models were stored thereafter in the dark at 4° C. and maintained their fluorescence for several weeks. Whole mounts of the PI stained models were analysed using fluorescent microscopy through coverslips applied directly to the surface of the tissue.

[4] = test system: T52 Hufos invasive tumour model; assay: T52 Hufos invasive tumour model, cell killing (H & E stained paraffin sections); format: cell-based, mouse
Protocol: as §1, §2

[5] = higher cisplatin concentration (500 μM, FIG. 10)
[6] = lower cisplatin concentration (50 μM, FIG. 10)

| Structure (SMILES) | effect on area of cell cover (SP-1 papilloma model [1]; 10^−6M RA (highest concentration studied), day 8 and day 10 (FIG. 6)) | effect on area of cell cover (SP-1 papilloma model [1]; 10^−7M RA, vs untreated controls, time course to day 12 (FIG. 5)) | degree of growth inhibition, concentration dependence (SP-1 papilloma model [1]; RA at 10^−6M, 10^−7M and 10^−8M (FIG. 6)) | effect on area of cell cover [2] | inhibition at 0.1 µM (SP-1 cells) [%] | cell killing (SP-1 papilloma model [3]; [5]) | cell killing (SP-1 papilloma model [3]; [6]) | cell killing [4, 5] | cell killing [4, 6] |
| --- | --- | --- | --- | --- | --- | --- | --- | --- | --- |
| CC1=C(/C=C/C(C)=C/C=C/C(C)=C/C(=O)O)C(C)(C)CCC1 [RA, All-trans-Retinoic acid] | marked effect | modest effect with less cell cover than the corresponding untreated controls | concentration dependent | no effect | 46 |  |  |  |  |
| N.N.[Cl][Pt][Cl] [cisplatin] |  |  |  |  |  | extensive cell death | evidence of cell killing | extensive cell death | evidence of cell killing |
